The nature of this data set: A: acetonitrile + 0.1% formic acid + 10 mM ammonium formate; B: 5% water + 95% acetonitrile + 0.1% formic acid + 10 mM ammonium formate; gradient (min/%B) 0/10 2/10 22/100 27/100 27.1/10. To be noted: stereoisomer not certain.

In the case of `O=C(CCc1ccc(O)cc1)c1c(O)cc(O)cc1OC1OC(CO)C(O)C(O)C1O` (configuration not stated) [Phloridzin], the LC retention time came out at 1.25 min. Next, `CC(C)=CCCC(C)CC=O` (single isomer, unassigned; (-)) [(-)-Citronellal]: 0.405 min. In the case of `NCCS(=O)(=O)O` [Taurine], the LC retention time stood at 5.82 min. As to `CCOC(=O)N1CCC(=C2c3ccc(Cl)cc3CCc3cccnc32)CC1` [Loratadine], the LC retention time amounted to 0.433 min. Turning to `O=C(O)C/C=C/CC(=O)O` [trans-2-Butene-1,4-dicarboxylic Acid], the LC retention time was found to be 5.56 min. Next, `CC(C)CCCC(C)C1CCC2C3CCC4=CC(=O)CCC4(C)C3CCC12C` (single isomer, unassigned; (+)) [(+)-4-Cholesten-3-one]: 0.407 min; `NC12CC3CC(CC(C3)C1)C2` [1-Aminoadamantane]: 2.36 min; `CCOC(=O)C1=CC(OC(CC)CC)C(NC(C)=O)C(N)C1` (configuration not stated) [Oseltamivir]: 2.47 min. `Nc1nc(N)c2nc(-c3ccccc3)c(N)nc2n1` [Triamterene]: the LC retention time was 2.5 min.

For `CCOC(=O)CCC(=O)OCC` [Diethyl succinate], the LC retention time turned out to be 0.425 min. For `NC(N)=NCC(=O)O` [Guanidoacetic acid], the LC retention time was determined as 6.12 min. Regarding `CNCCC(Oc1ccccc1C)c1ccccc1` (configuration not stated) [Atomoxetine], the LC retention time was determined as 1.02 min. Next, `Cn1cnc(=N)c2[nH]cnc21` [3-Methyladenine]: 2.75 min. Turning to `NC1(C(=O)O)CC1` [1-Aminocyclopropanecarboxylic acid], the LC retention time was 6.03 min. Next, `COc1ccc(C2Sc3ccccc3N(CCN(C)C)C(=O)C2OC(C)=O)cc1` (configuration not stated) [Diltiazem]: 1.04 min. Under `Nc1nc2c(ncn2C2OC(COP(=O)(O)O)C(O)C2O)c(=O)[nH]1` (configuration not stated) [Guanosine 5'-monophosphate] stands 7.36 min; under `Nc1ncnc2c1ncn2C1OC(COP(=O)(O)O)C(O)C1O` (configuration not stated) [Adenosine-5'-monophosphate], 6.76 min. Regarding `CC(=O)NCC(=O)O` [N-Acetylglycine], the LC retention time is 5.64 min. Next, `O=C(O)c1ccc2ccccc2n1` [Quinaldic acid]: 1.48 min; `O=P(O)(O)OCC1OC(O)C(O)C(O)C1O` [D-Glucose 6-phosphate]: 7.76 min; `COc1cc(OC)cc(OC)c1` [1,3,5-Trimethoxybenzene]: 0.423 min. Next, `NC(=O)C(N)Cc1c[nH]c2ccccc12` (configuration not stated) [H-Trp-NH2]: 3.39 min; `COc1ccc2nc(S(=O)Cc3ncc(C)c(OC)c3C)[nH]c2c1` (configuration not stated) [Omeprazole]: 0.484 min. Next, `O=c1ccn(C2OC(COP(=O)(O)O)C(O)C2O)c(=O)[nH]1` (configuration not stated) [Uridine-5'-phosphoric acid]: 6.86 min; `CC(CCC(=O)NCCS(=O)(=O)O)C1CCC2C3C(O)CC4CC(O)CCC4(C)C3CCC12C` (configuration not stated) [Tauroursodeoxycholic acid]: 2.7 min. As to `O=c1[nH]c(=O)c2ncn(C3OC(CO)C(O)C3O)c2[nH]1` (configuration not stated) [Xanthosine], the LC retention time is 5.1 min. For `Nc1ccn(C2OC(COP(=O)(O)O)C(O)C2O)c(=O)n1` (configuration not stated) [Cytidine 5'-monophosphate], the LC retention time came out at 7.4 min. Next, `COc1cc(CCN)ccc1O` [3-Methoxytyramine]: 2.92 min; `CSCC[C@H](N)C(=O)O` [L-Methionine]: 5.97 min.

With `CCCCCCCCCCCCCC(=O)OCC(COP(=O)(O)OCCN)OC(=O)CCCCCCCCCCCCC` (configuration not stated) [1,2-Dimyristoyl-sn-glycero-3-phosphoethanolamine], the LC retention time worked out at 2.44 min. Next, `OCCNCCO` [Diethanolamine]: 5.23 min. Under `Cn1c(=O)c2c(ncn2C)n(C)c1=O` [Caffeine] stands 0.477 min. For the compound `NCCCCC(NC(CCc1ccccc1)C(=O)O)C(=O)N1CCCC1C(=O)O` (configuration not stated) [Lisinopril], the LC retention time stood at 6.87 min.

On to `CC(=O)N[C@@H](CS)C(=O)O` [N-Acetyl-L-cysteine], for which the LC retention time was found to be 3.49 min. Next, `O=C/C=C/c1ccccc1` [trans-Cinnamaldehyde]: 0.43 min; `CC(=O)NC1C(O)CC(O)(C(=O)O)OC1C(O)C(O)CO` (configuration not stated) [N-Acetylneuraminic acid]: 6.84 min. Next, `Cc1cccc(Nc2ccccc2C(=O)O)c1C` [Mefenamic acid]: 0.437 min; `O=Cc1ccc(O)c(O)c1` [3,4-Dihydroxybenzaldehyde]: 0.571 min. For the compound `CCC(C)C(=O)NCC(=O)O` (configuration not stated) [2-Methylbutyrylglycine], the LC retention time was 1.55 min.

`Cn1cnc2c1c(=O)[nH]c(=O)n2C` [Theobromine]: the LC retention time worked out at 0.687 min. Take `Cc1nc2n(c(=O)c1CCN1CCC(c3noc4cc(F)ccc34)CC1)CCCC2` [Risperidone]: the LC retention time stood at 2.42 min. Next, `NC(CCCC(=O)O)C(=O)O` (configuration not stated) [Aminoadipic acid]: 6.5 min; `Cn1c(=O)c2[nH]cnc2n(C)c1=O` [Theophylline]: 0.596 min.

Turning to `NCCCC[C@H](N)C(=O)O` [L-Lysine], the LC retention time is 7.67 min. Under `CCC(=O)OCC(=O)C1(OC(=O)CC)C(C)CC2C3CCC4=CC(=O)C=CC4(C)C3(Cl)C(O)CC21C` (configuration not stated) [Beclometasone dipropionate] stands 0.416 min; under `CC(=O)N[C@@H](Cc1ccccc1)C(=O)O` [N-Acetyl-L-phenylalanine], 1.32 min.

Consider `CC1(C)SC2C(NC(=O)C(N)c3ccc(O)cc3)C(=O)N2C1C(=O)O` (configuration not stated) [Amoxicillin], for which the LC retention time is 5.79 min. Next, `Nc1ccc(S(=O)(=O)c2ccc(N)cc2)cc1` [4,4'-Diaminodiphenyl sulfone]: 0.441 min; `CC(C)n1c(C=CC(O)CC(O)CC(=O)O)c(-c2ccc(F)cc2)c2ccccc21` (configuration not stated) [Fluvastatin]: 0.561 min; `NC(=O)NCCC[C@H](N)C(=O)O` [L-Citrulline]: 6.76 min. With `NC(COP(=O)(O)O)C(=O)O` (configuration not stated) [Phosphoserine], the LC retention time came out at 7.9 min. In the case of `O=C(O)CCCCCC(=O)O` [Pimelic acid], the LC retention time was found to be 0.909 min. As for `CCOC(=O)C1=C(COCCN)NC(C)=C(C(=O)OC)C1c1ccccc1Cl` (configuration not stated) [Amlodipine], the LC retention time is 2.02 min. Next, `CNC(=C[N+](=O)[O-])NCCSCc1csc(CN(C)C)n1` [Nizatidine]: 3.03 min; `NCC(=O)N[C@@H](Cc1ccc(O)cc1)C(=O)O` [Glycyl-L-tyrosine]: 5.97 min. Next, `NCC(=O)NCC(=O)O` [Glycyl-glycine]: 7.02 min; `COc1cc(O)cc(OC)c1` [3,5-Dimethoxyphenol]: 0.433 min; `COC(=O)Cc1c[nH]c2ccccc12` [Methyl 3-indolyacetate]: 0.431 min. Next, `O=C(O)c1cc(=O)c2ccccc2[nH]1` [Kynurenic acid]: 3.56 min. Consider `CCCC(=O)Nc1ccc(OCC(O)CNC(C)C)c(C(C)=O)c1` (configuration not stated) [Acebutolol], for which the LC retention time stood at 2.28 min. Next, `Nc1ncnc2c1ncn2C1OC(CO)C(O)C1O` (configuration not stated) [Adenosine]: 2.08 min; `CC(=O)Nc1nnc(S(N)(=O)=O)s1` [Acetazolamide]: 0.529 min. Under `Cn1c(=O)[nH]c2[nH]c(=O)[nH]c2c1=O` [1-Methyluric acid] stands 3.32 min; under `N[C@@H](Cc1cc(I)c(Oc2ccc(O)cc2)c(I)c1)C(=O)O` [3,5-Diiodo-L-Thyronine], 3.63 min.

Take `O=C(O)CCc1c[nH]c2ccccc12` [3-Indolepropionic acid]: the LC retention time worked out at 0.467 min. Turning to `CC(C)C(N)CC(=O)O` (racemic) [DL-beta-Leucine], the LC retention time stood at 5.29 min. For the compound `NC(N)=NCCCC(=O)O` [4-Guanidinobutyric acid], the LC retention time was determined as 5.73 min. Next, `OCC1OC(OC2(CO)OC(CO)C(O)C2O)C(O)C(O)C1O` (configuration not stated) [Sucrose]: 6.27 min. Under `O=C(c1ccccc1)c1ccc2n1CCC2C(=O)O` (configuration not stated) [Ketorolac] stands 0.567 min; under `CC1=CC(=O)C(C)O1` (configuration not stated) [2,5-Dimethyl-2,3-dihydrofuran-3-one], 0.451 min. Take `NC(=O)c1ncn(C2OC(CO)C(O)C2O)c1N` [5-Aminoimidazole-4-carboxamide-1-beta-D-ribofuranoside]: the LC retention time stood at 3.02 min.

Regarding `CN(C)CCC=C1c2ccccc2CCc2ccccc21` [Amitriptyline], the LC retention time amounted to 0.977 min. Under `Nc1ccn(C2CC(O)C(CO)O2)c(=O)n1` (configuration not stated) [2'-Deoxycytidine] stands 3.51 min. Next, `O=C(O)Cc1cnc[nH]1` [Imidazole-4(5)-acetic Acid]: 6.1 min; `NS(=O)(=O)c1cc(C(=O)O)c(NCc2ccco2)cc1Cl` [Furosemide]: 0.586 min; `CCOC(=O)CC(=O)OCC` [Diethyl malonate]: 0.43 min.

On to `CC(N)c1ccccc1` (stereo not drawn) [alpha-Methylbenzylamine], for which the LC retention time came to 2.3 min. Next, `O=c1c(-c2ccc(O)cc2)coc2cc(O)ccc12` [Daidzein]: 0.473 min; `CCN(CC)CCCC(C)Nc1c2ccc(Cl)cc2nc2ccc(OC)cc12` (configuration not stated) [Quinacrine]: 3.99 min; `CNCC(O)c1ccc(O)cc1` (configuration not stated) [Synephrine]: 3.2 min. On to `NCCS(=O)O` [Hypotaurine], for which the LC retention time is 6.07 min. Under `Nc1nc2c(c(=O)[nH]1)N(C=O)C(CNc1ccc(C(=O)NC(CCC(=O)O)C(=O)O)cc1)CN2` (configuration not stated) [Folinic acid] stands 5.94 min.

The values are drawn from the RepoRT retention time repository.
